{"source": "patent US20230094545A1", "about": "“S1P RECEPTOR MODULATORS” (AKAAL PHARMA PTY LTD, priority 2020, published 2023)", "key": {"[1]": {"system": "middle cerebral artery occlusion (MCAO)", "test": "Middle cerebral artery occlusion (MCAO) model of stroke", "type": "in vivo", "settings": "oral 1, 3 and 5 mg/kg; ischemia 60 min, reperfusion 72 h", "procedure": "The compound of Formula I was assessed in an animal model of stroke, namely the middle cerebral artery occlusion (MCAO) model. The effect of a compound of Formula I on infarctions (TTC staining) and BBB leakage (Evan's blue extravasation) ischemia for 60 min and reperfusion for 72 h was assessed."}, "[2]": {"system": "paclitaxel induced neuropathic pain", "test": "Paclitaxel induced neuropathic pain", "type": "in vivo, Sprague Dawley Rats", "procedure": "Forty-eight male Sprague Dawley Rats were assigned to different treatment and control groups containing 8 animals per group. All animals, except the Naive control were injected with Paclitaxel (2 mg/kg) intraperitoneally on four alternate days (D0, D2, D4 and D6). For prophylactic intervention, the compound of Formula I was dosed orally at dose of 0.3, 1 and 3 mg/kg/day when the treatment was initiated along with paclitaxel treatment and the dosage was continued until day 15 post first paclitaxel injection. For therapeutic intervention, the compound of Formula I was dosed orally at dose of 3 mg/kg/day when the treatment was initiated after establishment of neuropathic pain i.e. on day 16 post first paclitaxel injection and was continued for the next 7 days.\nFor behavioural testing each rat was allowed to acclimatize individually to a transparent enclosure on elevated wire mesh for at least 15 min. Behavioural testing was performed using an Electronic von Frey Aesthesiometer (IITC Life Science) to evaluate paw withdrawal threshold to mechanical stimulus.\nBased on these findings it can be concluded that treatment with the compound of formula (I) is effective both as a prophylactic and therapeutic and has an anti-allodynic effect in paclitaxel induced neuropathic pain."}, "CFA mediated pain": {"system": "CFA mediated pain", "test": "CFA (Freund's adjuvant) mediated pain, topical treatment", "type": "in vivo, Sprague Dawley Rats", "text": "The total 24 female Sprague Dawley Rats were assigned to two test and two control groups having 6 animals per group. Animals from G1 and G2 received CFA on Day 1 by intraplanter route followed application of test item (0 and 3% respectively), onto injection site from Day 1 to Day 7. Group G3 and G4 animals received deep incision through the skin and fascia of the plantar foot followed by application of test item (0 and 3% respectively), onto the incision site from Day 1 to Day 7. Clinical signs, body weight and pain assessment parameters like Von Frey estimation and FOB was evaluated and the pain reduction results at Day 7 are summarized in Table 7."}, "[3]": {"system": "burn wound and scratch wounds", "test": "Topical formulation in wound patients (case reports)", "type": "in vivo, human", "procedure": "A patient presented with a second degree burn wound on the inner surface of their middle finger of their left hand, suffering from swelling, blistering and pain at the site of injury. A topical gel formulation of compound of formula (I) was applied topically to the site of injury.\nA patient presented with a scratch wounds on hands while cleaning gutters. These become inflamed and painful in 3 hours."}, "[4]": {"test": "Topical treatment of arthritis patients with pain", "type": "in vivo, human", "settings": "human, in vivo, topical, 60 mg daily, day 7, 60 mg daily topical", "procedure": "(§1) Fifteen arthritis patients who were experiencing pain were treated with the compound of Formula I@60 mg daily dosing as a topical treatment for seven consecutive days. […] The subjects blood parameters, urine alysis, vital signs, physical examination, ECG were normal.\n(§2) The numerical rating scale for pain scoring (NRS) in a compound of Formula I treated group […] reduced from 7.1±1.38 (Day 1; baseline) to 5.8±2.12 (Day 3) and 4.8±2.72 (Day 7). The mean NRS score change from baseline was −1.3±1.54 (Day 3) and −2.3±2.06 (Day 7) points in arthritis participants treated with compound of Formula I. In osteoarthritis participants, the mean change in pain score from Day 1 to Day 7 was of −1.9±1.46 and −1.9±1.57 for pain felt and worst pain felt in 24 hours, respectively. […] The systemic exposure on day 7 ranged from 0.42 ng/mL to 2.44 ng/mL (average 0.79 ng/mL)."}, "arthritis pain": {"system": "arthritis pain", "test": "Topical treatment of arthritis patients with pain", "type": "in vivo, human", "settings": "for numerical rating scale for pain scoring (NRS): baseline Day 1 7.1±1.38", "procedure": "as §1, §2"}}, "note": "Like-named read-outs stand apart in the source and are kept apart here."}
{"smiles": "CCCOc1ccc(-c2nc(-c3ccc4oc(C(N)(CO)CO)cc4c3)no2)cc1Cl", "note": "[compound of formula (I)]", "values": [{"measurement": "infarct volume, infarct area, sensory motor function, blood brain barrier leakage", "setting": "[1]", "result": "significantly reduced the infarct volume, infract area and sensory motor function and blood brain barrier leakage"}, {"measurement": "neuropathic pain, therapeutic treatment", "setting": "[2]; 3 mg/kg/day oral after establishment of pain, maximum effect after 5th daily dose", "result": "reversal of neuropathic pain in time dependent manner"}, {"measurement": "development of neuropathic pain, prophylactic treatment", "setting": "[2]; 0.3, 1 and 3 mg/kg/day oral, maximum effect at 3 mg/kg/day", "result": "inhibited the development of paclitaxel induced neuropathic pain dose dependently"}, {"measurement": "reduction of day 16 score", "setting": "[2]; preventive model, 1 and 3 mg/kg dose levels, p<0.001", "result": "> 60", "unit": "%"}, {"measurement": "anti-allodynic effect after withdrawal of treatment on day 15", "setting": "[2]; until 7 days post last drug treatment (day 22)", "result": "did not cause any reversal of the drug's anti-allodynic effect"}, {"measurement": "Pain reduction results at Day 7, CFA mediated pain", "setting": "CFA mediated pain; 3% (G2), Placebo (G1) 0.17", "result": 0.00}, {"measurement": "pain relief", "setting": "CFA mediated pain; 3% topical Day 1 to Day 7, day 7", "result": "complete pain relief"}, {"measurement": "adverse side effects", "setting": "[3]; both cases", "result": "No adverse side effects"}, {"measurement": "swelling and pain of scratch wounds", "setting": "[3]; ointment formulation, one patient", "result": "swelling and pain reduced dramatically"}, {"measurement": "swelling and blistering of burn wound", "setting": "[3]; topical gel formulation, after 10 minutes, one patient", "result": "swelling and blistering had visibly reduced dramatically"}, {"measurement": "pain of burn wound", "setting": "[3]; topical gel formulation, one patient", "result": "significant pain relief"}, {"measurement": "concentration at 7 day", "setting": "[4]; read-out: systemic exposure, average", "result": 0.79, "unit": "ng/mL"}, {"measurement": "concentration at 7 day", "setting": "[4]; read-out: systemic exposure, range", "result": "0.42 to 2.44", "unit": "ng/mL"}, {"measurement": "absolute lymphocyte count", "setting": "arthritis pain; 60 mg daily topical, 7 days", "result": "no systemic change in the absolute lymphocyte count"}, {"measurement": "safety and tolerability", "setting": "arthritis pain; 60 mg daily topical, seven days", "result": "safe and well tolerated"}, {"measurement": "mean NRS score change from baseline", "setting": "arthritis pain; Day 3", "result": "−1.3±1.54", "unit": "points"}, {"measurement": "numerical rating scale for pain scoring (NRS)", "setting": "arthritis pain; Day 3", "result": "5.8±2.12"}, {"measurement": "mean NRS score change from baseline", "setting": "arthritis pain; Day 7", "result": "−2.3±2.06", "unit": "points"}, {"measurement": "numerical rating scale for pain scoring (NRS)", "setting": "arthritis pain; Day 7", "result": "4.8±2.72"}, {"measurement": "positive PGART response", "setting": "arthritis pain; all treated participants (n=12), Day 3, 60 mg daily topical", "result": 41.7, "unit": "% participants"}, {"measurement": "positive PGART response", "setting": "arthritis pain; all treated participants (n=12), Day 7, 60 mg daily topical", "result": 58.3, "unit": "% participants"}, {"measurement": "mean change in pain score, pain felt", "setting": "arthritis pain; osteoarthritis participants, Day 1 to Day 7, p=0.0153", "result": "−1.9±1.46"}, {"measurement": "mean change in pain score, worst pain felt in 24 hours", "setting": "arthritis pain; osteoarthritis participants, Day 1 to Day 7, p=0.0205", "result": "−1.9±1.57"}, {"measurement": "positive PGART response", "setting": "arthritis pain; participants with osteoarthritis, Day 3", "result": 28.6, "unit": "% participants"}, {"measurement": "positive PGART response", "setting": "arthritis pain; participants with osteoarthritis, Day 7", "result": 57.1, "unit": "% participants"}]}
